In patent US6485742B1, “Process for producing coated preparation and its use” (BASF Aktiengesellschaft, priority 1999, dated 2002):

Assay: Change in appearance (browning) of filled gelatin capsules on storage
Format: physicochemical
Conditions: 0.4 g in gelatin capsules, sealed glass bottle, 40° C. for 30 days
Protocol: Each (0.4 g) of calcium L-ascorbate and the coated calcium L-ascorbate (70% L-ascorbate content) produced in Example 4 was filled in gelatin capsules (manufactured by Warner-Lambert Company, body volume 0.68 ml) and the capsules were placed in a transparent glass bottle. The bottle was sealed and stored in an incubator at 40° C. for 30 days to observe the change in appearances.

calcium L-ascorbate
Browning of filled gelatin capsules (change in appearance): severe browning
